The values below come from patent US9212139B2, “Aryl substituted indoles and their use as blockers of sodium channels” (Purdue Pharma, L.P., priority 2010, dated 2015).

Where two headings read alike, the source gives them in different places. Bounds are passed on as bounds.

The test concerns the target human Nav1.7 (Homo sapiens (Human), UniProt Q15858). Briefly: FLIPR or FLIPR TETRA sodium dye assay with KCl and test article pre-incubation. The test is classed as cell-based. The source says: For dominant selection of the Nav1.7-expressing clones, the expression plasmid co-expressed the neomycin resistance gene. […] Recombinant beta and gamma subunits were not introduced into this cell line. Additional cell lines expressing recombinant Nav1.7 cloned from other species can also be used, alone or in combination with various beta subunits, gamma subunits or chaperones.
Cell maintenance: Unless otherwise noted, cell culture reagents were purchased from Mediatech of Herndon, Va. The recombinant Nav1.7/HEK293 cells were routinely cultured in growth medium consisting of Dulbecco's […] containing 10% fetal bovine serum (FBS, Hyclone, Thermo Fisher Scientific, Logan, Utah), 100 U/mL penicillin, […], 2-4 mM L-glutamine, and […]. For natural, non-recombinant cell lines, the selective antibiotic was omitted, and additional media formulations can be applied as needed.
The intensity of this emission, but not the wavelength range, is increased when the dye is exposed to Na^+ ions, which it can bind with partial selectivity. Cells expressing Nav1.7 or other sodium channels were loaded with the CoroNa™ Green dye immediately in advance of the fluorescence assay, and then, after agonist stimulation, the mobilization of Na^+ ions was detected as the Na^+ ions flowed from the extracellular fluid into the cytoplasm through the activated sodium channel pores. The dye was stored in the dark as a lyophilized powder, and then an aliquot was dissolved immediately before the cell loading procedure, according to the instructions of the manufacturer to a stock concentration of 10 mM in DMSO. It was then diluted in the assay buffer to a 4× concentrated working solution, so that the final concentration of dye in the cell loading buffer was 5 μM.
These scorpion toxins inhibit the fast inactivation of their cognate target channels. Stock solutions of the agonists were prepared to 40 mM in DMSO (veratridine) and 1 mg/mL in dH2O (scorpion venom), and then diluted to make a 4× or 2× stock (depending on the particular assay) in assay buffer, the final concentration being 100 μM (veratridine) and 10 μg/mL (scorpion venom). Both of the agonists were purchased from Sigma Aldrich, St. Louis, Mo.
Test Compounds: Test compounds were dissolved in DMSO to yield 10 mM stock solutions. […] If a particular test article appeared to be especially potent, then the concentration curve was adjusted, e.g., to 10-fold lower concentrations, in order to perform the dose-response in a more relevant concentration range. Compound dilutions were added during the dye-loading and pre-stimulation step, and then again during the fluorescence assay, early in the kinetic read.
Data Analysis: The data were analyzed according to methods known to those skilled in the art or using the GraphPad® Prism 4.0 Program (available from GraphPad Software, San Diego, Calif.) to determine the IC50 value for the test article. At least one standard reference compound was evaluated during each experiment.
FLIPR® or FLIPR^TETRA® sodium dye assay with KCl and test article pre-incubation: Cells were prepared by plating the recombinant HEK293 cells or other host cells expressing either recombinant or non-recombinant, native, Nav1.7 alpha subunit, alone or in combination with various beta and gamma subunits at a density of ˜40,000 cells/well into a 96-well black, clear-bottom, PDL-coated plate. The assay can be adapted to 384-well or 1,536-well format, if desired, using proportionately less cells and media. […] For counter-screens of other voltage-gated sodium channels, the procedure was very similar, though optimal densities of cells, media and subsequent assay components can be fine-tuned for the particular cell line or isoform.

Where [1] appears, read: sodium dye assay with KCl, recombinant human Nav1.7 in HEK293 cells, value ± SEM.
[2] abbreviates: read-out: FLIPR Nav1.7 IC50 (μM) ± SEM.

Chain of human Nav1.7 (Q15858 other isoform, or with tags, fused parts or gaps): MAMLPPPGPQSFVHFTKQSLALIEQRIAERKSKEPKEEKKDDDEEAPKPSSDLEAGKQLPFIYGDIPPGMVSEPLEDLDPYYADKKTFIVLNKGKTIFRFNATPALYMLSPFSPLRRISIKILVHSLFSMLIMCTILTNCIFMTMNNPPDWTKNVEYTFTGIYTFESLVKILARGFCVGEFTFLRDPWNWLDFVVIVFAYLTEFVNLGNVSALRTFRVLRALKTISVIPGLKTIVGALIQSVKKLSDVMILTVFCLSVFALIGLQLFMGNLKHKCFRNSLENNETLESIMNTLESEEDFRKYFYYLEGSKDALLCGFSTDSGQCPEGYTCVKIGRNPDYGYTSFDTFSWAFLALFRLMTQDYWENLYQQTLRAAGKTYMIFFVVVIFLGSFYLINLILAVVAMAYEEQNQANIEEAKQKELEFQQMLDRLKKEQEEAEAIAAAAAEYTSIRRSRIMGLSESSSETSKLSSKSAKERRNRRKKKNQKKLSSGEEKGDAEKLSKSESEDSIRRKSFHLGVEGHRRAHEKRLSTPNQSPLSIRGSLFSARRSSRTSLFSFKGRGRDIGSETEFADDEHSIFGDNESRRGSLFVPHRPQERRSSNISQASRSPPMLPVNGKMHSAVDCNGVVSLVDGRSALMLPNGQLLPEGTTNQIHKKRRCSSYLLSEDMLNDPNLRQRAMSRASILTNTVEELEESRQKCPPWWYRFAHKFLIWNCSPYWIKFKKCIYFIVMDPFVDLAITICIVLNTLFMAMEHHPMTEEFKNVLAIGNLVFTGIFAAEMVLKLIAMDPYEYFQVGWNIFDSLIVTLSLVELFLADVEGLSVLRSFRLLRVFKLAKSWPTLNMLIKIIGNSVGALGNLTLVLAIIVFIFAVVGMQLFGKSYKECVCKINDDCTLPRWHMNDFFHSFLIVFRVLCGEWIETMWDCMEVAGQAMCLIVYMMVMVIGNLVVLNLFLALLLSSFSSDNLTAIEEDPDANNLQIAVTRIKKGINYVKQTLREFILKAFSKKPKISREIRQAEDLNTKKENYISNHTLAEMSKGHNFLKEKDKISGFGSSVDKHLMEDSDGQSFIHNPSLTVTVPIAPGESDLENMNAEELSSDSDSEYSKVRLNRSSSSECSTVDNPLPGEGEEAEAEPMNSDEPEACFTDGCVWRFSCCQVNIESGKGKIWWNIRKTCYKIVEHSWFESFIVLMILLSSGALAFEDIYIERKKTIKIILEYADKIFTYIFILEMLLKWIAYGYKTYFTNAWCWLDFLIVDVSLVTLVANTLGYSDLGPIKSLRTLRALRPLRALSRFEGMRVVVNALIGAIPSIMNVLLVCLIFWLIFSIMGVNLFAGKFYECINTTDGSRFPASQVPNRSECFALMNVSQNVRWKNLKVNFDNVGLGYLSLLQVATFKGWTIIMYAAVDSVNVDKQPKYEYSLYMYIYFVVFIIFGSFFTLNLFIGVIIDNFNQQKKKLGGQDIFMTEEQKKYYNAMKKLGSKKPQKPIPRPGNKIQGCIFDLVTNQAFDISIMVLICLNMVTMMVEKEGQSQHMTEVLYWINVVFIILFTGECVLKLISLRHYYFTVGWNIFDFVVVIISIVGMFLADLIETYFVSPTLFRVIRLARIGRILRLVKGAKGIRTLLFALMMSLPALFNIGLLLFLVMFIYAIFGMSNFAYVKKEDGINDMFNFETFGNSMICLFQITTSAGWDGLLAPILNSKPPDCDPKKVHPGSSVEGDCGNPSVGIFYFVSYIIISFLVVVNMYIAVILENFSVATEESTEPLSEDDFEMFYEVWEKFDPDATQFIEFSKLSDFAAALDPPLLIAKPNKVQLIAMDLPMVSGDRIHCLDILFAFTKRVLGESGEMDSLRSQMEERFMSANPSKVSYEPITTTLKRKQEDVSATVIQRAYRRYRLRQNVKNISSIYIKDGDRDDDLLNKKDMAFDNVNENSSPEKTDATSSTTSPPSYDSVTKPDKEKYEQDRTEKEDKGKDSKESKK

Consider `CCOC(=O)C(N)Cc1c[nH]c2ccc(-c3ccc(Oc4ccccc4)cc3)cc12` (stereo not shown) [Compound 7, 2-Amino-3-[5-(4-phenoxyphenyl)-1H-indol-3-yl]propionic acid ethyl ester], for which the IC50 (usually the point on the concentration scale where inhibition reaches its midpoint) under setting [1] amounted to 0.481 ± 0.042 µM.
On to `NC(Cc1c[nH]c2ccc(-c3ccc(Oc4ccccc4)cc3)cc12)C(=O)O` (stereo not shown) [Compound 9, 2-Amino-3-[5-(4-phenoxyphenyl)-1H-indol-3-yl]propionic acid], for which the IC50 under setting [1] was more than 20 µM.
Consider `NC(=O)C(N)Cc1c[nH]c2cc(-c3ccc(Oc4ccccc4)cc3)ccc12` (stereo not shown) [Compound 15, 2-Amino-3-[6-(4-phenoxyphenyl)-1H-indol-3-yl]propionamide], for which the IC50 under setting [1] amounted to 2.05 ± 0.094 µM.
Turning to `CCOC(=O)C(Cc1c[nH]c2cc(-c3ccc(Oc4ccccc4)cc3)ccc12)NC(=O)OC(C)(C)C` (stereo not shown) [Compound 16, 2-tert-Butoxycarbonylamino-3-[6-(4-phenoxyphenyl)-1H-indol-3-yl]-propionic acid ethyl ester], under setting [1], the IC50 was 2.52 ± 0.663 µM.
As for `CC(C)(C)OC(=O)NC(Cc1c[nH]c2cc(-c3ccc(Oc4ccccc4)cc3)ccc12)C(=O)O` (stereo not shown) [Compound 17, 2-tert-Butoxycarbonylamino-3-[6-(4-phenoxyphenyl)-1H-indol-3-yl]-propionic acid], the IC50 under setting [1] was determined as 1.93 ± 0.228 µM.
For the compound `NC(=O)C(N)Cc1c(-c2ccc(Oc3ccccc3)cc2)[nH]c2ccccc12` (stereo not shown) [Compound 28, 2-Amino-3-[2-(4-phenoxyphenyl)-1H-indol-3-yl]propionamide], the IC50 under setting [1] stood at 0.24 ± 0.023 µM.
Same read-out and setting: in the case of `NC(Cc1cn(-c2ccc(Oc3ccccc3)cc2)c2ccccc12)C(=O)NCCO` (stereo not shown) [Compound 37, 2-Amino-N-(2-hydroxyethyl)-3-[1-(4-phenoxyphenyl)-1H-indol-3-yl]-propionamide] it was 0.364 ± 0.112 µM; in that of `CS(=O)(=O)NC(Cc1cn(-c2ccc(Oc3ccccc3)cc2)c2ccccc12)C(N)=O` (stereo not shown) [Compound 39, 2-Methanesulfonylamino-3-[1-(4-phenoxyphenyl)-1H-indol-3-yl]propionamide], 1.01 ± 0.162 µM.
For the compound `N#Cc1cc(Oc2ccc(-n3cc(C(O)CO)c4ccccc43)cc2)ccc1C(F)(F)F` (stereo not shown) [Compound 51, 5-{4-[3-(1,2-Dihydroxyethyl)-1H-indol-1-yl]phenoxy}-2-(trifluoromethyl)benzonitrile], the IC50 under setting [2] was found to be 0.26 ± 0.009 µM.
`N#Cc1ccc(Oc2ccc(-n3cc(C[C@H](O)CO)c4ccccc43)cc2)cc1` [Compound 76, (S)-4-(4-(3-(2,3-Dihydroxypropyl)-1H-indol-1-yl)phenoxy)benzonitrile]: the IC50 under setting [2] turned out to be 0.501 ± 0.089 µM.
Regarding `N#Cc1ccc(Oc2ccc(-n3cc(C[C@@H](O)CO)c4ccccc43)cc2)cc1` [Compound 77, (R)-4-(4-(3-(2,3-Dihydroxypropyl)-1H-indol-1-yl)phenoxy)benzonitrile], the IC50 under setting [2] was found to be 0.48 ± 0.087 µM.
For the compound `OC[C@@H](O)Cc1cn(-c2ccc(Oc3ccc(C(F)(F)F)cc3)cc2)c2ccccc12` [Compound 80, (S)-3-(1-(4-(4-(Trifluoromethyl)phenoxy)phenyl)-1H-indol-3-yl)propane-1,2-diol], the IC50 under setting [1] came to 0.524 ± 0.085 µM.
Regarding `OC[C@@H](O)Cc1cn(-c2ccc(Oc3ccc(C(F)(F)F)cn3)cc2)c2ccccc12` [Compound 83, (S)-3-(1-(4-((5-(Trifluoromethyl)pyridin-2-yl)oxy)phenyl)-1H-indol-3-yl)propane-1,2-diol], the IC50 under setting [1] came out at 0.257 ± 0.067 µM.
Turning to `CN(c1ccc(F)cc1)S(=O)(=O)c1ccc(-n2cc(C[C@H](O)CO)c3ccccc32)cc1` [Compound 90, (S)-4-(3-(2,3-Dihydroxypropyl)-1H-indol-1-yl)-N-(4-fluorophenyl)-N-methylbenzenesulfonamide], under setting [1], the IC50 turned out to be 0.865 ± 0.058 µM.
Consider `O=S(=O)(Nc1ccc(F)cc1)c1ccc(-n2cc(C[C@H](O)CO)c3ccccc32)cc1` [Compound 92, (S)-4-(3-(2,3-Dihydroxypropyl)-1H-indol-1-yl)-N-(4-fluorophenyl)benzenesulfonamide], for which the IC50 under setting [1] worked out at 1.89 ± 0.164 µM.
Regarding `N#Cc1ccc2c(C[C@H](O)CO)cn(-c3ccc(Oc4ccc(F)cc4)cc3)c2c1` [Compound 105, (S)-3-(2,3-Dihydroxypropyl)-1-(4-(4-fluorophenoxy)phenyl)-1H-indole-6-carbonitrile], the IC50 under setting [1] amounted to 1.65 ± 0.438 µM.
With `N#Cc1ccc2c(c1)c(C[C@H](O)CO)cn2-c1ccc(Oc2ccc(F)cc2)cc1` [Compound 110, (S)-3-(2,3-Dihydroxypropyl)-1-(4-(4-fluorophenoxy)phenyl)-1H-indole-5-carbonitrile], under setting [1], the IC50 came to 2.45 ± 0.542 µM.
`N#Cc1cccc2c(C[C@H](O)CO)cn(-c3ccc(Oc4ccc(F)cc4)cc3)c12` [Compound 115, (S)-3-(2,3-Dihydroxypropyl)-1-(4-(4-fluorophenoxy)phenyl)-1H-indole-7-carbonitrile]: under setting [1], the IC50 came to 0.474 ± 0.133 µM.
For `N#Cc1cccc2c1c(C[C@H](O)CO)cn2-c1ccc(Oc2ccc(F)cc2)cc1` [Compound 120, (S)-3-(2,3-Dihydroxypropyl)-1-(4-(4-fluorophenoxy)phenyl)-1H-indole-4-carbonitrile], the IC50 under setting [1] stood at 0.262 ± 0.066 µM.
`NC(=O)c1ccc2c(C[C@H](O)CO)cn(-c3ccc(Oc4ccc(F)cc4)cc3)c2c1` [Compound 123, (S)-3-(2,3-Dihydroxypropyl)-1-(4-(4-fluorophenoxy)phenyl)-1H-indole-6-carboxamide]: the IC50 under setting [1] is 4.92 ± 0.822 µM.
Still for that read-out and setting: in the case of `O=C(O)c1cccc2c1c(C[C@H](O)CO)cn2-c1ccc(Oc2ccc(F)cc2)cc1` [Compound 129, (S)-3-(2,3-Dihydroxypropyl)-1-(4-(4-fluorophenoxy)phenyl)-1H-indole-4-carboxylic acid] it was 3.33 ± 0.495 µM; in that of `N#Cc1cc(Oc2ccc(-n3cc(C[C@@H](O)CO)c4c(C(O)CO)cccc43)cc2)ccc1C(F)(F)F` (stereo partly drawn) [Compound 139, 5-(4-(4-(1,2-Dihydroxyethyl)-3-((R)-2,3-dihydroxypropyl)-1H-indol-1-yl)phenoxy)-2-(trifluoromethyl)benzonitrile], more than 20 µM.
As to `N#Cc1cc(Oc2ccc(-n3cc(C[C@H](O)CO)c4c(C(O)CO)cccc43)cc2)ccc1C(F)(F)F` (stereo partly drawn) [Compound 141, 5-(4-(4-(1,2-Dihydroxyethyl)-3-((S)-2,3-dihydroxypropyl)-1H-indol-1-yl)phenoxy)-2-(trifluoromethyl)benzonitrile], the IC50 under setting [1] was found to be 1.97 ± 0.494 µM.
`NC(=O)c1nn(-c2ccc(Oc3ccccc3)cc2)c2ccccc12` [Compound 145, 1-(4-Phenoxyphenyl)-1H-indazole-3-carboxamide]: the IC50 under setting [2] was found to be 0.326 ± 0.043 µM.
On the same count and under the same terms, in the case of `O=C(NO)c1nn(-c2ccc(Oc3ccccc3)cc2)c2ccccc12` [Compound 146, N-Hydroxy-1-(4-phenoxyphenyl)-1H-indazole-3-carboxamide] it was 8.07 ± 0.484 µM.
`OCc1cn(-c2ccc(Oc3ccc(C(F)(F)F)cc3)cc2)c2cnccc12` [Compound 164, (1-(4-(4-(Trifluoromethyl)phenoxy)phenyl)-1H-pyrrolo[2,3-c]pyridin-3-yl)methanol]: under setting [1], the IC50 came out at 0.345 ± 0.027 µM.
The same measure, in the same setting: in the case of `N#Cc1ccc(Oc2ccc(-n3cc(C[C@H](O)CO)c4ccncc43)cc2)cc1` [Compound 170] it was 1.38 ± 0.542 µM.
For the compound `CCN(CC)CCn1ccc2cc(-c3ccc(Oc4ccc(F)cc4)cc3)ccc21` [Compound 177, N,N-Diethyl-2-(5-(4-(4-fluorophenoxy)phenyl)-1H-indol-1-yl)ethanamine], under setting [2], the IC50 was 0.895 ± 0.154 µM.
With `CCN(CC)CCn1cc(C(=O)C(N)=O)c2cc(-c3ccc(Oc4ccc(F)cc4)cc3)ccc21` [Compound 178, 2-(1-(2-Diethylamino)ethyl-5-(4-(4-fluorophenoxy)phenyl)-1H-indol-3-yl)-2-oxoacetamide], the IC50 under setting [2] turned out to be 1.03 ± 0.076 µM.
As for `CCN(CC)CCn1cc(C[C@H](O)CO)c2cc(-c3ccc(Oc4ccc(F)cc4)cc3)ccc21` [Compound 182], under setting [1], the IC50 stood at 1.06 ± 0.026 µM.
As for `NC(=O)Cn1cc(C[C@H](O)CO)c2cc(-c3ccc(Oc4ccc(F)cc4)cc3)ccc21` [Compound 186, (S)-2-(3-(2,3-Dihydroxypropyl)-5-(4-(4-fluorophenoxy)phenyl)-1H-indol-1-yl)acetamide], under setting [1], the IC50 amounted to 0.717 ± 0.042 µM.
